# What was measured:
# mTORC1 = molecular target: T1, mTORC1 (Mus musculus, UniProt P26883+Q9JLN9); assay: Phospho-S6 (P-S6) immunostain as mTORC1 reporter in intestine / sorted Paneth cells; format: in vivo, mice; settings: overnight fasted mice treated before refeeding 5 hours, FIG. 2a
# T1 construct: from tissue; host or cells: mouse small intestine sections, isolated crypts and sorted Paneth cells
# Description: Mice were housed in the Unit for Laboratory Animal Medicine at the Whitehead Institute for Biomedical Research. Lgr5-EGFP-IRES-CreERT2 mice (Strain name: B6.129P2-Lgr5tm1(cre/ERT2)Cle/J, Stock Number: 008875) were purchased from Jackson Laboratories. UbiquitinC-CreERT2 mice were obtained from the Jackson Laboratory (Strain Name: B6; 129S-Tg(UBC-cre/ERT2)1Ejb/J, Stock Number: 007001). Rictor floxed mice were generated as described in^27 and backcrossed to C57BL/6 for at least 6 generations. TSC1^loxp/loxp mice were the generous gift of D. Kwiatkowski (Harvard Medical School) and backcrossed to C57BL/6 for at least 6 generations. Rosa26-CreERT2 mice (Rosa26 or R26) were obtained from the Jackson Laboratory (Strain 15 Name: B6.129-Gt(ROSA)26Sor^iml(cre/ERT2)Tyj/J, Stock Number 008463). CR was achieved by providing individual or paired mice a daily portion of a chow diet fortified with vitamins and minerals amounting to 60% of the daily food intake of their ad libitum counterparts^20. All adult mice used in CR experiments were between the ages of 10 to 24 weeks and were sacrificed prior to their daily feeding. Rictor or TSC1 was excised by treatment with tamoxifen suspended in corn or sunflower seed oil (Spectrum) at a concentration of 10 mg/mL, and 200 μl per 25 g of body weight was injected intraperitoneally into mice once daily for 5-7 days. […] Mice were allowed to recover for at least 7 days after the last tamoxifen injection prior to any experiments. In vivo fate mapping in Lgr5-EGFP-IRES-reERT2; Rosa26loxpstoploxp-LacZ compound mice was done with a single injection of tamoxifen given at 200 μl per 25 g. As described previously^28, Rapamycin (LC Laboratories) was administered by intraperitoneal injection for 7 to 28 consecutive doses at 4 mg/kg. It was reconstituted in absolute ethanol at 10 mg/ml and diluted in 5% Tween-80 (Sigma) and 5% PEG-400 (Hampton Research) before injection. The final volume of all injections was 200 μl. Regular insulin (Lilly) was administered at 0.75 U/kg diluted in PBS 20 minutes prior to sacrificing fasted mice. […]
# Paneth cells [1] = assay: Frequency of Paneth cells by flow cytometry in rapamycin-treated mice; format: in vivo; settings: Rapamycin 4 mg/kg daily i.p., 4 weeks, n=13-14, FIG. 3h
# Description: Mice were housed in the Unit for Laboratory Animal Medicine at the Whitehead Institute for Biomedical Research. Lgr5-EGFP-IRES-CreERT2 mice (Strain name: B6.129P2-Lgr5tm1(cre/ERT2)Cle/J, Stock Number: 008875) were purchased from Jackson Laboratories. UbiquitinC-CreERT2 mice were obtained from the Jackson Laboratory (Strain Name: B6; 129S-Tg(UBC-cre/ERT2)1Ejb/J, Stock Number: 007001). Rictor floxed mice were generated as described in^27 and backcrossed to C57BL/6 for at least 6 generations. TSC1^loxp/loxp mice were the generous gift of D. Kwiatkowski (Harvard Medical School) and backcrossed to C57BL/6 for at least 6 generations. Rosa26-CreERT2 mice (Rosa26 or R26) were obtained from the Jackson Laboratory (Strain 15 Name: B6.129-Gt(ROSA)26Sor^iml(cre/ERT2)Tyj/J, Stock Number 008463). CR was achieved by providing individual or paired mice a daily portion of a chow diet fortified with vitamins and minerals amounting to 60% of the daily food intake of their ad libitum counterparts^20. All adult mice used in CR experiments were between the ages of 10 to 24 weeks and were sacrificed prior to their daily feeding. Rictor or TSC1 was excised by treatment with tamoxifen suspended in corn or sunflower seed oil (Spectrum) at a concentration of 10 mg/mL, and 200 μl per 25 g of body weight was injected intraperitoneally into mice once daily for 5-7 days. […]
# Paneth cells [2] = assay: Paneth cell numbers in small intestine after 10 Gy ionizing radiation (histology); format: in vivo, mice; settings: for number of Paneth cells vs irradiated control, pre- and post-treatment: 4 mg/kg IP daily 1 week, 10 Gy gamma rays, then intermittent rapamycin two weeks, FIG. 14c; for number of Paneth cells vs irradiated control, post-treatment only: 10 Gy followed by intermittent rapamycin over two weeks, FIG. 14b
# Protocol: Paneth cells are essential to the survival of Lgr5+ intestinal stem cells. […] The clonogenicity of ISCs is enhanced by co-culturing of these cells with Paneth cells from mice treated with caloric restriction or rapamycin (FIG. 13a). […] Mice were also treated with 10 Gy of radiation followed by intermittent treatment with rapamycin over the two weeks. […] Accordingly, rapamycin and derivatives or analogs or other agents thereof which inhibit mTOR, and/or and caloric restriction can be employed as agents for increasing the number and function of intestinal stem cells and Paneth cells, and as radioprotective agents against the acute and late toxicities of deliberate and accidental exposure to ionizing radiation.
# [3] = system: enteroendocrine and goblet cells; assay: Enteroendocrine (chromogranin A) and goblet cell (Alcian blue) differentiation; format: in vivo, mice; settings: FIG. 6a-b
# Protocol: Tissues were fixed in 10% formalin, paraffin embedded, and sectioned. Antigen retrieval was performed with Borg Decloaker RTU solution (Biocare Medical) in a pressurized Decloaking Chamber (Biocare Medical) for 3 minutes. Antibodies: rat anti-BrdU (1:2000; Abeam 6326), rabbit phospho-S6 Ser235/236 (1:500, CST 4858), rabbit cleaved caspase 3 (1:500; CST 9664), rabbit chromogranin A (1:3000, Abeam 15160), rabbit Lysozyme (1:2000; Thermo), rabbit Bst-1 (1:1000, Abeam 74301) and mouse Bst-1 (1:100 to 500, BD Pharmingen). For mouse Bst-1, the M.O.M (mouse on mouse) kit was used according to the manufacturer's instructions (Vector labs PK-2200). Biotin conjugated secondary donkey anti-rabbit or rat antibodies were used from Jackson ImmunoResearch. The Vectastain Elite ABC immunoperoxidase detection kit (Vector Labs PK-6101) followed by Dako Liquid DAB+ Substrate (Dako) was used for visualization. For immunofluorescence Alexa Fluor 568 secondary antibodies (Invitrogen) were used. All antibody incubations were performed with Common Antibody Diluent (Biogenex).
structure (smiles),measurement,setting,value
"CO[C@H]1C[C@@H]2CC[C@@H](C)[C@@](O)(O2)C(=O)C(=O)N2CCCC[C@H]2C(=O)O[C@H]([C@H](C)C[C@@H]2CC[C@@H](O)[C@H](OC)C2)CC(=O)[C@H](C)/C=C(\C)[C@@H](O)[C@@H](OC)C(=O)[C@H](C)C[C@H](C)/C=C/C=C/C=C/1C [Rapamycin, sirolimus]",mTORC1 activation (P-S6) in Paneth cells by feeding,mTORC1,blocked this activation
same,increase in frequency of Paneth cells vs vehicle,Paneth cells [1],more than 1.5 fold
same,"number of Paneth cells vs irradiated control, pre- and post-treatment",Paneth cells [2],increase in the number of morphologically normal Paneth cells
same,"number of Paneth cells vs irradiated control, pre- and post-treatment",Paneth cells [2]; listed as rapamycin,significantly higher numbers of Paneth cells
same,"number of Paneth cells vs irradiated control, post-treatment only",Paneth cells [2],increase in the number of morphologically normal Paneth cells
same,"number of Paneth cells vs irradiated control, post-treatment only",Paneth cells [2]; listed as rapamycin,significantly higher numbers of Paneth cells
same,effects on enteroendocrine and goblet cell differentiation,[3],minimal effects

# Reference: US9532997B2, “Compositions and methods for promoting intestinal stem cell function” (Whitehead Institute for Biomedical Research, priority 2012, dated 2017)
